The values that follow come from patent publication US12522582B2 (Gilead Sciences, Inc., priority 2022, dated 2026).

This experiment deals with HSV-2 virus (MS strain). In words: HSV-2 Cellomics Assay (immunofluorescence of HSV protein gD in infected ARPE-19 cells). The following applies: Human alphaherpesvirus 2, ARPE-19, 16 h.
The mark [1] stands for this setting: read-out: EC50-HSV2-10% Human Serum.

Read-outs that look alike come from different tables or passages of the source.

In general, EC50 refers to the concentration at which the effect is half-maximal. For the compound `CS(=N)(=O)c1cc2c(cc1F)CCN2C(=O)[C@@H]1Cc2ccc(-c3ccccn3)cc2C1` (mixture of isomers) [Example 39, (5-fluoro-1-((R)-5-(pyridin-2-yl)-2,3-dihydro-1H-indene-2-carbonyl)indolin-6-yl)(imino)(methyl)-λ^6-sulfanone], the EC50 reads like this: under setting [1], 188 nM; (read-out: EC50-HSV2-FBS) 45 nM.

Regarding `CC1CN(C(=O)[C@H]2Cc3cc(-c4ccccn4)ccc3[C@@H]2C)c2cc(S(N)(=O)=O)c(F)cc21` (mixture of isomers) [Example 103, 5-fluoro-3-methyl-1-((1R,2S)-1-methyl-5-(pyridin-2-yl)-2,3-dihydro-1H-indene-2-carbonyl) indoline-6-sulfonamide], the EC50 is 221 nM under setting [1] and 36 nM (read-out: EC50-HSV2-FBS).

Take `CCC1Cc2cc(F)c(S(=N)(=O)O)cc2N1C(=O)[C@@H]1Cc2ccc(-c3ccccn3)cc2C1` (mixture of isomers) [Example 112]: the EC50 runs as follows: under setting [1], 579 nM; (read-out: EC50-HSV2-FBS) 81 nM.

With `C[C@@H]1Cc2ccc(S(N)(=O)=O)cc2N1C(=O)[C@H]1Cc2ccc(-c3ccccn3)cc2C1` (single isomer, unassigned) [Example 14], the EC50 (read-out: EC50-HSV2-FBS) is 2480 nM.

As to `C[C@H]1Cc2ccc(S(N)(=O)=O)cc2N1C(=O)[C@H]1Cc2ccc(-c3ccccn3)cc2C1` (single isomer, unassigned) [Example 17], the EC50 (read-out: EC50-HSV2-FBS) turned out to be 551 nM.

For `C[S@@](=N)(=O)c1ccc2c(c1)N(C(=O)[C@@H]1Cc3ccc(-c4ccccn4)cc3C1)CC2` (single isomer, unassigned) [Example 31], the EC50 under setting [1] was 9380 nM and the EC50 (read-out: EC50-HSV2-FBS) worked out at 849 nM.

On to `C[C@@H]1CN(C(=O)[C@H]2Cc3cc(-c4ccccn4)ccc3[C@@H]2C)c2cc(S(N)(=O)=O)c(F)cc21` (single isomer, unassigned) [Example 105], for which the EC50 is 251 nM under setting [1] and 45 nM (read-out: EC50-HSV2-FBS).

Consider `Cc1c(S(N)(=O)=O)ccc2c1N(C(=O)C1Cc3ccc(-c4ccccn4)cc3C1)CC2` (stereo not shown) [Example 1], for which the EC50 (read-out: EC50-HSV2-FBS) was determined as 721 nM.

In the case of `Cc1cc(S(N)(=O)=O)cc2c1CCN2C(=O)C1Cc2ccc(-c3ccccn3)cc2C1` (stereo not shown) [Example 2], the EC50 runs as follows: under setting [1], 23600 nM; (read-out: EC50-HSV2-FBS) 65 nM.

Turning to `NS(=O)(=O)c1ccc2c(c1F)N(C(=O)C1Cc3ccc(-c4ccccn4)cc3C1)CC2` (stereo not shown) [Example 4], the EC50 under setting [1] is no less than 25000 nM and the EC50 (read-out: EC50-HSV2-FBS) amounted to 284 nM.

For `NS(=O)(=O)c1cc(F)c2c(c1)N(C(=O)C1Cc3ccc(-c4ccccn4)cc3C1)CC2` (stereo not shown) [Example 6], the EC50 under setting [1] was no less than 25000 nM and the EC50 (read-out: EC50-HSV2-FBS) turned out to be 72 nM.

Take `NS(=O)(=O)c1cc(Cl)c2c(c1)N(C(=O)C1Cc3ccc(-c4ccccn4)cc3C1)CC2` (stereo not shown) [Example 7]: the EC50 under setting [1] was no less than 25000 nM and the EC50 (read-out: EC50-HSV2-FBS) worked out at 62 nM.

As for `NS(=O)(=O)c1ccc2c(c1)N(C(=O)C1Cc3cc(F)c(-c4ccccn4)cc3C1)CC2` (stereo not shown) [Example 9], the concentration giving a half-maximal response (EC50) was 2600 nM under setting [1] and 105 nM (read-out: EC50-HSV2-FBS).

For the compound `NS(=O)(=O)c1ccc2c(c1)N(C(=O)C1Cc3ccc(-c4ccccn4)c(F)c3C1)CC2` (stereo not shown) [Example 10], the EC50 (read-out: EC50-HSV2-FBS) was 537 nM.

In the case of `NS(=O)(=O)c1ccc2c(c1)N(C(=O)C1Cc3ccc(-c4ccccn4)c(Cl)c3C1)CC2` (stereo not shown) [Example 11], the EC50 (read-out: EC50-HSV2-FBS) was 7660 nM.

On to `NS(=O)(=O)c1ccc2c(c1)N(C(=O)C1Cc3cc(Cl)c(-c4ccccn4)cc3C1)CC2` (stereo not shown) [Example 12], for which, where the note is “read-out: EC50-HSV2-FBS”, the EC50 was 5040 nM.

Take `NS(=O)(=O)c1cc2c(cc1F)CCN2C(=O)C1Cc2cc(-c3ccccn3)cc(F)c2C1` (stereo not shown) [Example 13]: the EC50 is no less than 10000 nM under setting [1] and 250 nM (read-out: EC50-HSV2-FBS).

As to `NS(=O)(=O)c1ccc2c(c1)N(C(=O)C1Cc3ccc(-c4cncc(F)n4)cc3C1)CC2` (stereo not shown) [Example 18], the EC50 (read-out: EC50-HSV2-FBS) came out at 180 nM.

As to `NS(=O)(=O)c1ccc2c(c1)N(C(=O)C1Cc3ccc(-c4nccs4)cc3C1)CC2` (stereo not shown) [Example 20], the EC50 (read-out: EC50-HSV2-FBS) was 91 nM.

For `Cc1csc(-c2ccc3c(c2)CC(C(=O)N2CCc4ccc(S(N)(=O)=O)cc42)C3)n1` (stereo not shown) [Example 22], for the setting “read-out: EC50-HSV2-FBS”, the 50% effective concentration (EC50) was 48 nM.
